According to ChEMBL document CHEMBL5149996, “Structure-Based Optimization and Discovery of M3258, a Specific Inhibitor of the Immunoproteasome Subunit LMP7 (β5i)” (J Med Chem, 2021):
pIC50: −log10 of the molar value. Active and inactive are the calls of the source. The rule behind the calls is not given here.

Tests used:
[1] = test system: 20S immunoproteasome beta-5i subunit; assay: Selectivity ratio of IC50 for cytotoxicity against human HepG2 cells to IC50 for inhibition of 20S immunoproteasome beta-5i subunit in human PBMC; format: toxicity, cell-based; settings: read-out: Ratio IC50
[2] = target: T1, Proteasome subunit beta type-9 (Homo sapiens, UniProt P28065); assay: Inhibition of human 20S immunoproteasome beta-1i subunit using (Ac-PAL)2R110 as substrate preincubated for 2 hrs followed by substrate addition and measured after 1 hr by fluorescence intensity assay
T1 sequence (P28065 whole entry): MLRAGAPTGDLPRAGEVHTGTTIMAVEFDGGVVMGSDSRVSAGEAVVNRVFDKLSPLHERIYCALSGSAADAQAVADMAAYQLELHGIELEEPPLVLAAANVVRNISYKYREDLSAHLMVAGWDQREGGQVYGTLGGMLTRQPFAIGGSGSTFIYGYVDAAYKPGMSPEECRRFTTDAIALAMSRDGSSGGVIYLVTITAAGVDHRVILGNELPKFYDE

[3] = Oral bioavailability in mouse at 10 mg/kg; format: ADME, organism-based; settings: in vivo
U-266 [4] = assay: In vivo inhibition of LMP7 activity in tumor lysates of H2d Rag2 mouse xenografted with human U266B1 cells at 1 mg/kg, po administered as single dose using (Ac-ANW)2R110 as substrate measured up to 14 hrs by fluorescence intensity assay; format: functional, organism-based; settings: Neoplasm
[5] = Distribution coefficient, log D of the compound; format: physicochemical; settings: octanol/water
[6] = Cytotoxicity against human primary hepatocytes assessed as depletion of ATP content incubated for 48 to 72 hrs by CellTiter-Glo luminescent assay; format: toxicity, cell-based, Hepatocyte
[7] = Intrinsic clearance in human liver microsomes measured per mg protein; format: ADME, Microsome
U-266 [8] = assay: In vivo inhibition of LMP7 activity in tumor lysates of H2d Rag2 mouse xenografted with human U266B1 cells at 0.3 mg/kg, po administered once daily using (Ac-ANW)2R110 as substrate measured at 1 to 6 hrs post-last drug dosage by fluorescence intensity assay; format: functional, organism-based; settings: Neoplasm, time 1-6 hrs
U-266 [9] = assay: Antitumor activity against human U266B1 cells xenografted in H2d Rag2 mouse assessed as reduction in tumor volume at 0.3 mg/kg, po administered once daily and measured for 21 days; format: functional, organism-based; settings: time 21.0 day
[10] = Cytotoxicity against human HepG2 cells assessed as depletion of ATP content incubated for 48 to 72 hrs by CellTiter-Glo luminescent assay; format: toxicity, cell-based
[11] = Intrinsic clearance in mouse liver microsomes measured per mg protein; format: ADME, Microsome; settings: read-out: CLH
[12] = test system: 20S immunoproteasome beta-5i subunit; assay: Selectivity ratio of IC50 for cytotoxicity against Wistar Han rat hepatocytes to IC50 for inhibition of 20S immunoproteasome beta-5i subunit in human PBMC; format: toxicity; settings: read-out: Ratio IC50
[13] = Clearance in mouse hepatocytes measured per million of cells; format: ADME, cell-based, Hepatocyte; settings: read-out: CLH
[14] = Half life in iv dosed mouse; format: ADME, organism-based; settings: in vivo
[15] = Lipophilicity, log P of the compound; format: physicochemical; settings: octanol/water
Homo sapiens = species: Homo sapiens; assay: Selectivity ratio of IC50 for inhibition of human 20S proteasome beta5 subunit to IC50 for inhibition of human 20S immunoproteasome beta-5i subunit

O=C(N[C@@H](Cc1coc2ccccc12)B(O)O)[C@@H]1C[C@H]2CC[C@@H]1O2
selectivity ratio [1]: 10000 | pIC50 [2]: < 4.52 | bioavailability [3]: 35% | inhibition (U-266 [4]): Active | logD [5]: 1.1 | pIC50 [6]: 4.04 | CLH [7]: < 10 µL/min/mg | inhibition (U-266 [8]): Active | Activity (U-266 [9]): Active | pIC50 [10]: 4.32 | microsomal CLint [11]: 14 µL/min/mg | selectivity ratio [12]: 10000 | hepatocyte CLint [13]: 15 µL/min/1e6 cells | half-life [14]: 1.71 h | logP [15]: 2.34 | Ratio IC50 (Homo sapiens): 684
